Experimental data: US20230114728A1 (Venatorx Pharmaceuticals, Inc., priority 2019, published 2023)

Assays:
[1] = target: T1, E. coli K12 PBP4 (Escherichia coli, UniProt P24228); assay: Bocillin-FL fluorescence polarization competition binding assay, E. coli PBP4; details: fluorescence polarization competition binding assay using Bocillin-FL; read-out: E. coli K12 PBP4 Potency (EC50)
T1 construct: made in house
From the text: (§1) Example I: Experimental Method for Penicillin-Binding Protein Binding Assays with Bocillin-FL Via Fluorescence Polarization
(§2) To determine the ability of boronic acid-based test PBP inhibitors to bind Penicillin Binding Proteins (PBPs), Bocillin-FL (fluorescently-labeled penicillin V; ThermoFisher Scientific) was used in a fluorescence polarization (FP) competition binding assay to assess inhibitor binding to PBP2, PBP3 or PBP4 from Escherichia coli (K12), PBP3 from Pseudomonas aeruginosa (PA01), PBP1a, PBP2 and PBP3 from Acinetobacter baumannii (ATCC 19606), and PBP2 from Neiserria gonorrheae (FA19). PBPs were cloned and purified as described previously (E. coli PBPs, King, D. T, et al., ACS Infectious Diseases 2015, 1, 175-184; P. aeruginosa PBP3, Han et. al., PNAS 2010, 107 (51), 22002-22007; A. baumannii PBPs, Penwell et. al., Antimicrob. Agents Chemother. 2015, 59 (3), 1680-1689; N. gonorrhoeae PBP2, Singh et. al., J Biol. Chem. 2019, 294 (38), 14020-14032). To establish assay conditions for competition binding, enzyme titration/saturation binding experiments were initially performed. Bocillin-FL was prepared at 0.2 μM in a buffer comprised of 50 mM Hepes (pH 8.0), 300 mM NaCl and 5% (v/v) glycerol for reactions with E. coli, P. aeruginosa and N. gonorrhoeae PBPs, and 25 mM Tris (pH 8.0), 200 mM NaCl and 10% (v/v) glycerol and 0.005% (v/v) Tween 20 for reactions with A. baumannii PBPs. Saturation binding was performed by mixing 40 μl of PBP solutions ranging in concentrations from 0-24 μM with 40 μl of the 0.2 μM Bocillin-FL solution, in individual wells of a black 384-well microplate. FP was measured immediately upon mixing (Excitation, 490 nm; Emission, 520 nm; g-factor, 0.96), using a Cytation3 (BioTek) microplate reader and measured continuously for up to 120 minutes. […] Bocillin-FL was added and the FP immediately measured for up to 60 minutes (90 minutes for E. coli PBP2). […]

[2] = target: T2, E. coli K12 PBP2 (Escherichia coli, UniProt P0AD65); assay: Bocillin-FL fluorescence polarization competition binding assay, E. coli PBP2
T2 construct: made in house
T2 sequence (P0AD65 whole entry): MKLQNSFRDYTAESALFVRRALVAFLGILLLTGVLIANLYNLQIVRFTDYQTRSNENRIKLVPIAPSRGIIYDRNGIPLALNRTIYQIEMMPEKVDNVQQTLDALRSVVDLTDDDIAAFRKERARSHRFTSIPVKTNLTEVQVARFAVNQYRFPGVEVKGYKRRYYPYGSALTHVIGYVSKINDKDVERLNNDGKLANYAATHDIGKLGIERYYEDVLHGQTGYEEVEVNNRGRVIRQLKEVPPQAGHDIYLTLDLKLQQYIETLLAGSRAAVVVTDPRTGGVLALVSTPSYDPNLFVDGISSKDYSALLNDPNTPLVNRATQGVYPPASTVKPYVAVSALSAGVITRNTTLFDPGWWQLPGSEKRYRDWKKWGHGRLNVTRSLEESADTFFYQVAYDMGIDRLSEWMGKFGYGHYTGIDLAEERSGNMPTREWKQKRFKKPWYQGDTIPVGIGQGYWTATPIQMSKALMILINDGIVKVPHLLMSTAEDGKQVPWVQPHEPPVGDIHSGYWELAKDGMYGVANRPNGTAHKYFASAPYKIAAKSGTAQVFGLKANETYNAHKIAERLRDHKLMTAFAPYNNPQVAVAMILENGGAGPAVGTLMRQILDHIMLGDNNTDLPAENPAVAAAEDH
From the text: as §1, §2

[3] = target: T3, E. coli K12 PBP1b (Escherichia coli, UniProt P02919); assay: Radioligand competition binding assay with 14C-labeled boronic acid probe, E. coli PBP1b; details: competition binding assay using 14C-labeled boronic acid probe; read-out: E. coli K12 PBP1b EC50
T3 construct: made in house
T3 sequence (P02919 whole entry): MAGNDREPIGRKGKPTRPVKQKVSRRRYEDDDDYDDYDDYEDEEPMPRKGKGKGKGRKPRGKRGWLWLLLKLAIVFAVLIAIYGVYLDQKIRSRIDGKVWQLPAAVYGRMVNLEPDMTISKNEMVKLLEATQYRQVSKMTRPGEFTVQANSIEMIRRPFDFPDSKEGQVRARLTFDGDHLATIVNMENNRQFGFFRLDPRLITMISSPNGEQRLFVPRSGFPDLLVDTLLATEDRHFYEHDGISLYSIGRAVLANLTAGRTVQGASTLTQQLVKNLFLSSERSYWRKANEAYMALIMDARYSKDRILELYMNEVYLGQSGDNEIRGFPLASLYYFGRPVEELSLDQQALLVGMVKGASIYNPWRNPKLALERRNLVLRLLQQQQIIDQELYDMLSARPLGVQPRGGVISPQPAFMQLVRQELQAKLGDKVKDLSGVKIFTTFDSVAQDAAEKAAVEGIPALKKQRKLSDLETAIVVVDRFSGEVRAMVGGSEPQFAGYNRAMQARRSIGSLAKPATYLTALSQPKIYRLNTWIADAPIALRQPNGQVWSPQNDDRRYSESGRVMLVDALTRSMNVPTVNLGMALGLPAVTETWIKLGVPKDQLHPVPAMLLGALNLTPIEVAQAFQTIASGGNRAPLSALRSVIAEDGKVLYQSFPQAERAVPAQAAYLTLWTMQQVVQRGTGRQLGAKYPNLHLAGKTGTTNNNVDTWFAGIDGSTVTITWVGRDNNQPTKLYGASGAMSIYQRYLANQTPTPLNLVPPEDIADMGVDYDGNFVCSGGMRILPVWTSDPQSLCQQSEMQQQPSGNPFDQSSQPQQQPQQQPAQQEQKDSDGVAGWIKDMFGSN
From the text: Example II: Experimental Method to Assess Binding to Penicillin-Binding Proteins: Radioligand Competition Binding Assay
To determine the ability of boronic acid-based test PBP inhibitors to bind Penicillin Binding Proteins (PBPs), a radio-labelled boronic acid PBP inhibitor:
was used in competition binding assays to determine boronic acid PBP inhibitor binding to PBP1a or PBP1b from Escherichia coli. PBP1a and PBP1b were purified as described previously (Bertsche, U.; et al., J Biol. Chem. 2005, 280 (45), 38096-38101; Born, P.; et al., J Biol. Chem. 2006. 281 (37), 26985-26993). To establish assay conditions for competition binding, an enzyme titration/saturation binding experiment was performed. Saturation binding was performed in a buffer comprised of 20 mM Tris (pH 7.5), 500 mM NaCl and 0.1% (v/v) TritonX-100, with PBP1a/PBP1b at a final concentration of 0.1 μM and Compound A at final concentrations ranging from 0-100 μM. Mixtures were incubated for 60 minutes, then applied to Zeba Spin Desalting columns or plates (ThermoFisher Scientific) and centrifuged at 1000-1500×g for 2 minutes. The flow through, containing PBP bound with Compound A, was recovered and 100 μL mixed with 5 mL of UltimaGold liquid scintillation cocktail (Perkin Elmer), and the radioactivity counted using a Beckman Coulter LS 6500 Multipurpose scintillation counter. PBP binding of Compound A approached saturation at 20 μM of ^14C-labeled probe. The competition binding assay was validated using the beta-lactam ampicillin, with Compound A at a final concentration of 20 μM, PBP1a/PBP1b at a final concentration of 0.1 μM. PBP1a/PBP1b was incubated with ampicillin in a 96-well microplate for 60 minutes, then Compound A was added and the mixtures incubated for an additional 60 minutes. The mixtures were then applied to Zeba Spin desalting plates and centrifuged at 1000×g for 2 minutes. The flow through was recovered and 100 μl mixed with 5 ml of UltimaGold liquid scintillation cocktail and the radioactivity counted. […] Binding assays with boronic acid PBP inhibitors were performed in an identical fashion. […]

T1 sequence (P24228 21-477): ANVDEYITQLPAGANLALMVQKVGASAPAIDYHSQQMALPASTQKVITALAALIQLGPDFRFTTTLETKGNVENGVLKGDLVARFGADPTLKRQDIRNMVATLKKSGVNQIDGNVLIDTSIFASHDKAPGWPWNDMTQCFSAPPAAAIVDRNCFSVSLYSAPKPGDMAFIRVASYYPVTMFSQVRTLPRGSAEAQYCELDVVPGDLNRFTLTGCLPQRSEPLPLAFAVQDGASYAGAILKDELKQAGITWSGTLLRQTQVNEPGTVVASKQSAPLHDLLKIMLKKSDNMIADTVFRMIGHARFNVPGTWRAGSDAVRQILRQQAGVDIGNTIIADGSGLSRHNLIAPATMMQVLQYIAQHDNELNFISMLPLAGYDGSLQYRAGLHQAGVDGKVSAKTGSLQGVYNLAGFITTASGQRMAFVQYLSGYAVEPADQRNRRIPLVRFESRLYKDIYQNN

Compound	EC50 [1]	EC50 [2]	EC50 [3]
CCN1CCN(C(=O)NC(C(=O)N[C@H]2Cc3ccc(S)c(C(=O)O)c3OB2O)c2csc(N)n2)C(=O)C1=O (stereo partly drawn) [Example 54, (3R)-3-(2-(2-aminothiazol-4-yl)-2-(4-ethyl-2,3-dioxopiperazine-1-carboxamido)acetamido)-2-hydroxy-7-mercapto-3,4-dihydro-2H-benzo[e][1,2]oxaborinine-8-carboxylic acid]	30 to 500 µM	30 to 500 µM	10 to 100 µM
CCN1CCN(C(=O)NC(C(=O)N[C@H]2Cc3ccc(SCc4ccc(O)cc4)c(C(=O)O)c3OB2O)c2csc(N)n2)C(=O)C1=O (stereo partly drawn) [Example 55, (3R)-3-(2-(2-aminothiazol-4-yl)-2-(4-ethyl-2,3-dioxopiperazine-1-carboxamido)acetamido)-2-hydroxy-7-((4-hydroxybenzyl)thio)-3,4-dihydro-2H-benzo[e][1,2]oxaborinine-8-carboxylic acid]	30 to 500 µM	30 to 500 µM	> 100 µM
